# In PubChem BioAssay (NCI):
# “And” between values parts separate entries of the source, which are not always exact repeats. Equal entries are not always repeated.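 Briefly, cells in 96-well plates were exposed to five compound concentrations for 48 h, and endpoints were estimated by linear interpolation. GI50 = concentration required for 50% inhibition of growth. Definition used: TGI = concentration required for complete inhibition of growth.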
# Columns and labels:
# Experiment in all cases: NCI-60 cell line screen, 48 h
# [1] = system: OVCAR-8 ovarian
# [2] = system: CCRF-CEM leukemia
# [3] = system: SN12C renal
# [4] = system: CAKI-1 renal
# [5] = system: OVCAR-4 ovarian
# [6] = system: NCI/ADR-RES ovarian
# [7] = system: T-47D breast
# [8] = system: HCT-15 colon
# [9] = system: M14 melanoma
# [10] = system: SK-MEL-28 melanoma
# [11] = system: KM12 colon
# [12] = system: NCI-H460 lung
# [13] = system: SR leukemia
# [14] = system: EKVX NSCLC
# [15] = system: SF-295 CNS
# [16] = system: MDA-MB-231 breast
# [17] = system: HT29 colon
# [18] = system: HL-60(TB) leukemia
# [19] = system: SK-MEL-5 melanoma
# [20] = system: IGROV1 ovarian
# [21] = system: K-562 leukemia
# [22] = system: MCF7 breast
# [23] = system: SW-620 colon
# [24] = system: HOP-92 NSCLC
# [25] = system: COLO 205 colon
# [26] = system: SNB-75 CNS
# [27] = system: SF-539 CNS
# [28] = system: MOLT-4 leukemia
# [29] = system: U251 CNS
# [30] = system: ACHN renal
# [31] = system: UACC-257 melanoma
# [32] = system: PC-3 prostate
# [33] = system: MDA-MB-435
# [34] = system: NCI-H226 lung
# [35] = system: BT-549 breast
# [36] = system: 786-0 renal
# [37] = system: SNB-19 CNS
# [38] = system: HOP-62 NSCLC
# [39] = system: RXF 393 renal
# [40] = system: RPMI-8226 leukemia
# [41] = system: DU-145 prostate
# [42] = system: OVCAR-5 ovarian
# [43] = system: SK-OV-3 ovarian
# [44] = system: TK-10 renal
# [45] = system: UACC-62 melanoma
# [46] = system: A549 NSCLC
# [47] = system: OVCAR-3 ovarian
# [48] = system: SF-268 CNS
structure (smiles),measurement,setting,value
CC(C)N=c1cc2n(-c3ccc(Cl)cc3)c3ccccc3nc-2cc1Nc1ccc(Cl)cc1,GI50,[1],2790 nM
same,TGI,[1],> 100000 nM
same,GI50,[2],750 nM and 2490 nM
same,TGI,[2],> 100000 nM
same,GI50,[3],920 nM and 2740 nM
same,TGI,[3],> 100000 nM
same,GI50,[4],1730 nM
same,TGI,[4],> 20900 nM
same,GI50,[5],1290 nM
same,TGI,[5],> 100000 nM
same,GI50,[6],2300 nM
same,TGI,[6],> 100000 nM
same,GI50,[7],2370 nM
same,TGI,[7],> 50000 nM
same,GI50,[8],540 nM and 1610 nM
same,TGI,[8],> 100000 nM
same,GI50,[9],1010 nM and 2290 nM
same,TGI,[9],2310 nM and 5620 nM
same,GI50,[10],> 50000 nM
same,TGI,[10],> 50000 nM
same,GI50,[11],1180 nM
same,TGI,[11],> 50000 nM
same,GI50,[12],778 nM
same,TGI,[12],> 50000 nM
same,GI50,[13],2480 nM
same,TGI,[13],> 100000 nM
same,GI50,[14],1400 nM
same,TGI,[14],> 100000 nM
same,GI50,[15],1360 nM
same,TGI,[15],> 50000 nM
same,GI50,[16],618 nM and 1070 nM
same,TGI,[16],> 50000 nM
same,GI50,[17],537 nM and 827 nM
same,TGI,[17],> 50000 nM and 6270 nM
same,GI50,[18],1040 nM
same,TGI,[18],2460 nM
same,GI50,[19],634 nM and 1280 nM
same,TGI,[19],1260 nM and 2590 nM
same,GI50,[20],586 nM and 296 nM
same,TGI,[20],> 50000 nM
same,GI50,[21],2240 nM
same,TGI,[21],> 100000 nM
same,GI50,[22],1280 nM and 2360 nM
same,TGI,[22],> 100000 nM
same,GI50,[23],2960 nM
same,TGI,[23],> 100000 nM
same,GI50,[24],629 nM
same,TGI,[24],2830 nM
same,GI50,[25],1170 nM and 1410 nM
same,TGI,[25],4210 nM and 5030 nM
same,GI50,[26],1230 nM
same,TGI,[26],15900 nM
same,GI50,[27],> 50000 nM
same,TGI,[27],> 50000 nM
same,GI50,[28],2560 nM
same,TGI,[28],> 100000 nM
same,GI50,[29],1070 nM and 3110 nM
same,TGI,[29],> 100000 nM
same,GI50,[30],1180 nM and 2180 nM
same,TGI,[30],> 100000 nM
same,GI50,[31],2580 nM
same,TGI,[31],> 50000 nM
same,GI50,[32],891 nM and 1900 nM
same,TGI,[32],> 50000 nM
same,GI50,[33],1040 nM and 1800 nM
same,TGI,[33],2740 nM and 4460 nM
same,GI50,[34],1430 nM
same,TGI,[34],> 50000 nM
same,GI50,[35],1470 nM
same,TGI,[35],> 50000 nM
same,GI50,[36],1520 nM and 3120 nM
same,TGI,[36],> 100000 nM
same,GI50,[37],2210 nM
same,TGI,[37],> 50000 nM
same,GI50,[38],4710 nM and 4810 nM
same,TGI,[38],> 100000 nM
same,GI50,[39],921 nM
same,TGI,[39],4720 nM
same,GI50,[40],821 nM
same,TGI,[40],2620 nM
same,GI50,[41],3140 nM and 3410 nM
same,TGI,[41],> 100000 nM
same,GI50,[42],2150 nM
same,TGI,[42],> 100000 nM
same,GI50,[43],2150 nM
same,TGI,[43],> 50000 nM
same,TGI,[44],> 100000 nM
same,GI50,[45],1960 nM
same,TGI,[45],> 50000 nM
same,GI50,[46],1850 nM and 1840 nM
same,GI50,[47],1210 nM
same,TGI,[47],2760 nM
same,GI50,[48],1730 nM
same,TGI,[48],> 50000 nM
